Assay results from ChEMBL document CHEMBL1201862, “PubChem BioAssay data set” (2004).
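Method: 48-hour compound exposure of cells in 96-well plates, five concentrations, linear interpolation of endpoints. Here, GI50 denotes the concentration required for 50% inhibition of growth.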 Active and inactive are the calls of the source. Cut-off read from the data, not from the text of the source: active = GI50 up to about 1.1 µM and inactive = higher.

Columns and labels:
Assay in all cases: inhibition of tumour cell growth, NCI panel, 48 h
RXF 393 = test system: RXF 393
SK-OV-3 = test system: SK-OV-3
IGROV-1 = test system: IGROV-1
EKVX = test system: EKVX
K562 = test system: K562
OVCAR-8 = test system: OVCAR-8
SF-539 = test system: SF-539
KM-20L2 = test system: KM-20L2
RPMI-8226 = test system: RPMI-8226
COLO 205 = test system: COLO 205
M14 = test system: M14
M19-MEL = test system: M19-MEL
HOP-62 = test system: HOP-62
U-251 = test system: U-251
SF-295 = test system: SF-295
SF-268 = test system: SF-268
HCT-116 = test system: HCT-116
HT-29 = test system: HT-29
Malme-3M = test system: Malme-3M
HCT-15 = test system: HCT-15
SW-620 = test system: SW-620
A549 = test system: A549
HL-60 = test system: HL-60
SNB-75 = test system: SNB-75
DLD-1 = test system: DLD-1
UACC-257 = test system: UACC-257
LXFL 529 = test system: LXFL 529
NCI-H460 = test system: NCI-H460
MOLT-4 = test system: MOLT-4
LOX IMVI = test system: LOX IMVI
SN12C = test system: SN12C
NCI-H226 = test system: NCI-H226
HOP-92 = test system: HOP-92
OVCAR-3 = test system: OVCAR-3
NCI-H522 = test system: NCI-H522
CCRF-CEM = test system: CCRF-CEM
HOP-18 = test system: HOP-18
XF498 = test system: XF498
TK-10 = test system: TK-10
KM12 = test system: KM12
OVCAR-5 = test system: OVCAR-5
786-0 = test system: 786-0
HCC 2998 = test system: HCC 2998
A498 = test system: A498
OVCAR-4 = test system: OVCAR-4
NCI-H23 = test system: NCI-H23
CAKI-1 = test system: CAKI-1
SR = test system: SR
ACHN = test system: ACHN
DMS-114 = test system: DMS-114
SK-MEL-5 = test system: SK-MEL-5
RXF 631 = test system: RXF 631
UACC-62 = test system: UACC-62
SNB-19 = test system: SNB-19
UO-31 = test system: UO-31
SK-MEL-2 = test system: SK-MEL-2
SK-MEL-28 = test system: SK-MEL-28
DMS-273 = test system: DMS-273
SNB-78 = test system: SNB-78

Structure (SMILES): CC1(C)CCc2cc3c(cc2O1)OCC1c2cc4c(cc2OC31)OCO4 (configuration not stated)
- GI50 (RXF 393): > 100 µM (inactive)
- GI50 (SK-OV-3): > 100 µM (inactive)
- GI50 (IGROV-1): > 100 µM (inactive)
- GI50 (EKVX): > 100 µM (inactive)
- GI50 (K562): 71.1 µM (inactive)
- GI50 (OVCAR-8): > 100 µM (inactive)
- GI50 (SF-539): > 100 µM (inactive)
- GI50 (KM-20L2): > 100 µM (inactive)
- GI50 (RPMI-8226): > 100 µM (inactive)
- GI50 (COLO 205): > 100 µM (inactive)
- GI50 (M14): > 100 µM (inactive)
- GI50 (M19-MEL): 82.4 µM (inactive)
- GI50 (HOP-62): > 100 µM (inactive)
- GI50 (U-251): > 100 µM (inactive)
- GI50 (SF-295): > 100 µM (inactive)
- GI50 (SF-268): > 100 µM (inactive)
- GI50 (HCT-116): > 100 µM (inactive)
- GI50 (HT-29): > 100 µM (inactive)
- GI50 (Malme-3M): 32.7 µM (inactive)
- GI50 (HCT-15): 63 µM
- GI50 (SW-620): > 100 µM (inactive)
- GI50 (A549): > 100 µM (inactive)
- GI50 (HL-60): 35.5 µM (inactive)
- GI50 (SNB-75): > 100 µM (inactive)
- GI50 (DLD-1): > 100 µM (inactive)
- GI50 (UACC-257): 28 µM (inactive)
- GI50 (LXFL 529): > 100 µM (inactive)
- GI50 (NCI-H460): 54.5 µM (inactive)
- GI50 (MOLT-4): > 100 µM (inactive)
- GI50 (LOX IMVI): > 100 µM (inactive)
- GI50 (SN12C): > 100 µM (inactive)
- GI50 (NCI-H226): > 100 µM (inactive)
- GI50 (HOP-92): > 100 µM (inactive)
- GI50 (OVCAR-3): > 100 µM (inactive)
- GI50 (NCI-H522): > 100 µM (inactive)
- GI50 (CCRF-CEM): > 100 µM (inactive)
- GI50 (HOP-18): > 100 µM (inactive)
- GI50 (XF498): 52.1 µM (inactive)
- GI50 (TK-10): 99.8 µM (inactive)
- GI50 (KM12): > 100 µM (inactive)
- GI50 (OVCAR-5): > 100 µM (inactive)
- GI50 (786-0): > 100 µM (inactive)
- GI50 (HCC 2998): > 100 µM (inactive)
- GI50 (A498): > 100 µM (inactive)
- GI50 (OVCAR-4): > 100 µM (inactive)
- GI50 (NCI-H23): > 100 µM (inactive)
- GI50 (CAKI-1): > 100 µM (inactive)
- GI50 (SR): > 100 µM (inactive)
- GI50 (ACHN): > 100 µM (inactive)
- GI50 (DMS-114): > 100 µM (inactive)
- GI50 (SK-MEL-5): 39.9 µM (inactive)
- GI50 (RXF 631): 55.3 µM (inactive)
- GI50 (UACC-62): > 100 µM (inactive)
- GI50 (SNB-19): > 100 µM (inactive)
- GI50 (UO-31): > 100 µM (inactive)

Structure (SMILES): COC[C@H](C)/N=C/N1CCc2ccccc2C1(Cc1ccccc1)Cc1ccccc1
- GI50 (RXF 393): 15.2 µM (inactive)
- GI50 (SK-OV-3): 16.9 µM (inactive)
- GI50 (IGROV-1): 68.1 µM (inactive)
- GI50 (SK-MEL-2): 10.6 µM (inactive)
- GI50 (EKVX): 29.9 µM (inactive)
- GI50 (K562): 6.97 µM (inactive)
- GI50 (OVCAR-8): 15.1 µM (inactive)
- GI50 (SF-539): 18.2 µM (inactive)
- GI50 (KM-20L2): 10.8 µM (inactive)
- GI50 (RPMI-8226): 15.8 µM (inactive)
- GI50 (COLO 205): 13.5 µM (inactive)
- GI50 (M14): 10.3 µM (inactive)
- GI50 (HOP-62): 24.8 µM (inactive)
- GI50 (U-251): 13.8 µM (inactive)
- GI50 (SF-295): 14.5 µM (inactive)
- GI50 (SF-268): 21.9 µM (inactive)
- GI50 (HCT-116): 10.8 µM (inactive)
- GI50 (HT-29): 5.07 µM (inactive)
- GI50 (Malme-3M): 11.8 µM (inactive)
- GI50 (HCT-15): 11 µM
- GI50 (SW-620): 22.6 µM (inactive)
- GI50 (A549): 30.4 µM (inactive)
- GI50 (HL-60): 6.17 µM (inactive)
- GI50 (SNB-75): 17.8 µM (inactive)
- GI50 (DLD-1): 8.18 µM (inactive)
- GI50 (UACC-257): 13.8 µM (inactive)
- GI50 (LXFL 529): 11.8 µM (inactive)
- GI50 (NCI-H460): 12 µM (inactive)
- GI50 (MOLT-4): 10.4 µM (inactive)
- GI50 (SN12C): 10.3 µM (inactive)
- GI50 (NCI-H226): 18.5 µM (inactive)
- GI50 (HOP-92): 15.6 µM (inactive)
- GI50 (OVCAR-3): 22.1 µM (inactive)
- GI50 (NCI-H522): 12.7 µM (inactive)
- GI50 (CCRF-CEM): 12.9 µM (inactive)
- GI50 (HOP-18): 11 µM (inactive)
- GI50 (XF498): 12.3 µM (inactive)
- GI50 (TK-10): 17.8 µM (inactive)
- GI50 (KM12): 13.6 µM (inactive)
- GI50 (786-0): 16.5 µM (inactive)
- GI50 (OVCAR-4): 12.8 µM (inactive)
- GI50 (NCI-H23): 17.2 µM (inactive)
- GI50 (CAKI-1): 16.3 µM (inactive)
- GI50 (SK-MEL-28): 11.1 µM (inactive)
- GI50 (SR): 11.6 µM (inactive)
- GI50 (ACHN): 21.2 µM (inactive)
- GI50 (SK-MEL-5): 47.9 µM (inactive)
- GI50 (RXF 631): 13.5 µM (inactive)
- GI50 (UACC-62): 26.9 µM (inactive)
- GI50 (SNB-19): 17.3 µM (inactive)
- GI50 (UO-31): 12.9 µM (inactive)

Structure (SMILES): C=C(C)C1CC[C@]2(C(=O)O)CCC3(C)[C@H](CCC4[C@@]5(C)CC[C@H](OC6OC(CO)C(O)C6OC6OC(C)C(O)C(O)C6O)[C@@](C)(CO)C5CC[C@]43C)C12 (some centres not stated)
- GI50 (RXF 393): > 100 µM (inactive)
- GI50 (IGROV-1): > 100 µM (inactive)
- GI50 (SK-MEL-2): > 100 µM (inactive)
- GI50 (EKVX): > 100 µM (inactive)
- GI50 (K562): > 100 µM (inactive)
- GI50 (OVCAR-8): > 100 µM (inactive)
- GI50 (SF-539): > 100 µM (inactive)
- GI50 (KM-20L2): > 100 µM (inactive)
- GI50 (COLO 205): > 100 µM (inactive)
- GI50 (M14): > 100 µM (inactive)
- GI50 (M19-MEL): > 100 µM (inactive)
- GI50 (HOP-62): > 100 µM (inactive)
- GI50 (U-251): > 100 µM (inactive)
- GI50 (SF-295): > 100 µM (inactive)
- GI50 (SF-268): > 100 µM (inactive)
- GI50 (HCT-116): > 100 µM (inactive)
- GI50 (HT-29): > 100 µM (inactive)
- GI50 (HCT-15): > 100 µM
- GI50 (SW-620): > 100 µM (inactive)
- GI50 (A549): > 100 µM (inactive)
- GI50 (HL-60): > 100 µM (inactive)
- GI50 (SNB-75): > 100 µM (inactive)
- GI50 (DLD-1): 33.9 µM (inactive)
- GI50 (LXFL 529): > 100 µM (inactive)
- GI50 (NCI-H460): > 100 µM (inactive)
- GI50 (MOLT-4): > 100 µM (inactive)
- GI50 (LOX IMVI): > 100 µM (inactive)
- GI50 (SN12C): > 100 µM (inactive)
- GI50 (NCI-H226): > 100 µM (inactive)
- GI50 (OVCAR-3): > 100 µM (inactive)
- GI50 (NCI-H522): 88.1 µM (inactive)
- GI50 (CCRF-CEM): > 100 µM (inactive)
- GI50 (XF498): > 100 µM (inactive)
- GI50 (TK-10): > 100 µM (inactive)
- GI50 (KM12): > 100 µM (inactive)
- GI50 (OVCAR-5): > 100 µM (inactive)
- GI50 (786-0): > 100 µM (inactive)
- GI50 (HCC 2998): > 100 µM (inactive)
- GI50 (OVCAR-4): > 100 µM (inactive)
- GI50 (NCI-H23): > 100 µM (inactive)
- GI50 (SK-MEL-28): > 100 µM (inactive)
- GI50 (DMS-273): > 100 µM (inactive)
- GI50 (SR): > 100 µM (inactive)
- GI50 (ACHN): > 100 µM (inactive)
- GI50 (DMS-114): > 100 µM (inactive)
- GI50 (SK-MEL-5): > 100 µM (inactive)
- GI50 (RXF 631): > 100 µM (inactive)
- GI50 (UACC-62): > 100 µM (inactive)
- GI50 (SNB-19): > 100 µM (inactive)
- GI50 (SNB-78): > 100 µM (inactive)
- GI50 (UO-31): 20.1 µM (inactive)
